SMILES strings stand for the structures.

The target in the experiment is T1, human TLR8 (hTLR8) (Homo sapiens, UniProt Q9NR97).
T1 construct: expressed in transfected cells
T1 sequence (Q9NR97 27-1041): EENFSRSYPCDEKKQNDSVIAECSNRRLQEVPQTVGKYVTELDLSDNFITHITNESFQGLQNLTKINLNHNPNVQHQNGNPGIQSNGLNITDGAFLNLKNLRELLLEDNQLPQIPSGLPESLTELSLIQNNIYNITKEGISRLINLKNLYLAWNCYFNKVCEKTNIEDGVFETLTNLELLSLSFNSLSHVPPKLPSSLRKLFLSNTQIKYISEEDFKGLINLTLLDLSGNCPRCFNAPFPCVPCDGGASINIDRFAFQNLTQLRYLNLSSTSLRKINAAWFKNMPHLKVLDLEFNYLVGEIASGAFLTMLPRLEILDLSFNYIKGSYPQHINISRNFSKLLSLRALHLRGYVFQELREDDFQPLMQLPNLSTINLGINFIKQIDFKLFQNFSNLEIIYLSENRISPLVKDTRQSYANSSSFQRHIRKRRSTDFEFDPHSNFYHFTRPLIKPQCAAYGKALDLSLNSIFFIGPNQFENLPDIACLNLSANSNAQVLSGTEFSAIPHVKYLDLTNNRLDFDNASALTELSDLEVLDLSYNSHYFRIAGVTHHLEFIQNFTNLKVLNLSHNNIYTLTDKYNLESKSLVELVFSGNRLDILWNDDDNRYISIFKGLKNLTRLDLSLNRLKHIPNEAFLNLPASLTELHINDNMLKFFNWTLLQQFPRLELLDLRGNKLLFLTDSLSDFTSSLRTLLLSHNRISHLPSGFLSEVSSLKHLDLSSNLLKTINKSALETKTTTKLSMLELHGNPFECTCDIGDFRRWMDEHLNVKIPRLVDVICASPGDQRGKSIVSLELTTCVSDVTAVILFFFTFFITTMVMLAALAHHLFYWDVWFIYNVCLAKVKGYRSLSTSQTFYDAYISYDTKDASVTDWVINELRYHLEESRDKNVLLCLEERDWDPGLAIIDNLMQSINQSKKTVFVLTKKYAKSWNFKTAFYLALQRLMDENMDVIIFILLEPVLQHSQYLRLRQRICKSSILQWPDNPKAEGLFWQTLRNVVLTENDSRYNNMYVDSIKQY
The experiment can be described thus: Antagonist screen, hTLR8-NFκB-293 cells, NF-κB-luciferase reporter, with EC50 of R848. The experiment is classed as cell-based. The note with it: compound at 0.5, 5, 50 μg/ml; EC50 concentration of R848; 16 h; NF-κB-luciferase. How it is done: The method is described in greater detail as follows. The cells for each individual cell clone (hTLR3-NFκB-293, hTLR7-NFκB-293, hTLR8-NFκB-293 and hTLR9-NFκB-293) were counted and seeded one day before the stimulation at 1.5×10^4 cells per well in 96-well cell culture plates. To become adherent the cells were incubated after seeding overnight at 37° C. in 5% CO2 humidified air.
The screen for each compound was performed at the same time for all of the receptors TLR3, TLR7, TLR8 and TLR9. Up to fifteen test compounds, each assayed in duplicate at each of three different final concentrations (0.5 μg/ml, 5 μg/ml, and 50 μg/ml), were used for 16 h cell stimulation on a single multiwell culture plate. A 4× final concentration master plate was created to prepare the different test compounds before they were added to the cells.
Controls were added as duplicates individually for each cell clone on the cell culture plate. Positive controls were used as follows (final concentrations): 50 μg/ml poly(I:C) for hTLR3-NFκB-293; 8 μM resiquimod (R848) for hTLR7-NFκB-293; 30 μM R848 for hTLR8-NFκB-293; and 2.5 μM CpG-ODN 2006 for hTLR9-NFκB-293. Media alone was used as negative control. After addition of controls and small molecules, the cell clones were additionally stimulated with the EC50 concentration of the appropriate receptor-specific ligand.
The mean value of wells H2 and H5 (each with cells and EC50 concentration of the appropriate receptor-specific ligand) divided by the mean of wells H3 and H6 (each with cells alone) yielded the baseline response (i.e., fold induction of luciferase activity) to EC50 concentration of the appropriate receptor-specific ligand.
After 16 h stimulation the supernatant was removed and the cells treated with lysis buffer and stored at −80° C. before measuring.
For each screen result a graphical documentation was performed.
The baseline result (measured with addition of the EC50 concentration of the receptor-specific ligand) for each cell culture plate was measured as described above. Antagonistic effects were measured by down regulation compared to the baseline. Antagonists were scored as follows: • 13: compounds for which there was clear down regulation at 0.5 μg/ml, 5 μg/ml, and 50 μg/ml; • 12: compounds for which there was clear down regulation at 5 μg/ml and 50 μg/ml; • 11: compounds for which there was clear down regulation only at 50 μg/ml; • —: compounds for which there was no clear down regulation even at 50 μg/ml. Agonists
Results were expressed as fold induction over baseline luciferase activity measured in the absence of R848. […] Additional screening was performed in like manner using additional small molecules selected from another library or specifically prepared for this purpose. Scoring is reported as above but as applied to TLR8.
(In a reporter assay the amount or activity of a reporter protein is the signal.)
For the molecule `CC1NCCc2c1[nH]c1ccccc21.Cl` (racemic) [compound 619, Eleagnine hydrochloride (R,S)], the “hTLR8 (inhibitory effect, antagonist score)” value is “— (compounds for which there was no clear down regulation even at 50 μg/ml)”.

Regarding `O=C1c2c(O)cccc2Cc2cccc(O)c21` [compound 43, Anthralin], the “hTLR8 (inhibitory effect, antagonist score)” value was 12 (compounds for which there was clear down regulation at 5 μg/ml and 50 μg/ml).

As to `CN(C)CCCN1c2ccccc2Sc2ccc(C(F)(F)F)cc21.Cl` [compound 53, Triflupromazinehydrochloride], the “hTLR8 (inhibitory effect, antagonist score)” value is 11 (compounds for which there was clear down regulation only at 50 μg/ml).

Consider `CN(C)CCCN1c2ccccc2Sc2ccc(Cl)cc21.Cl` [compound 64, Chlorpromazinehydrochloride], for which the “hTLR8 (inhibitory effect, antagonist score)” value is listed as 11 (compounds for which there was clear down regulation only at 50 μg/ml).

Consider `CN(C)CCC=C1c2ccccc2CCc2ccccc21.Cl` [compound 74, Amitryptilinehydrochloride], for which the “hTLR8 (inhibitory effect, antagonist score)” value is given as “— (compounds for which there was no clear down regulation even at 50 μg/ml)”.

Take `OC(c1ccccc1)(c1ccccc1)C1CCNCC1` [compound 93, Azacyclonol]: the “hTLR8 (inhibitory effect, antagonist score)” value is “— (compounds for which there was no clear down regulation even at 50 μg/ml)”.

Turning to `CN1Cc2c(N)cccc2C(c2ccccc2)C1.O=C(O)/C=C\C(=O)O` (stereo not shown) [compound 108, Nomifensine maleate], the “hTLR8 (inhibitory effect, antagonist score)” value is “— (compounds for which there was no clear down regulation even at 50 μg/ml)”.

Turning to `C[C@]12N[C@H](Cc3ccccc31)c1ccccc12.O=C(O)/C=C\C(=O)O` [compound 109, Dizocilpine maleate], the “hTLR8 (inhibitory effect, antagonist score)” value is on record as “— (compounds for which there was no clear down regulation even at 50 μg/ml)”.

For the molecule `OCCN1CCN(CCCN2c3ccccc3Sc3ccc(Cl)cc32)CC1` [compound 125, Perphenazine], the “hTLR8 (inhibitory effect, antagonist score)” value was 11 (compounds for which there was clear down regulation only at 50 μg/ml).

As for `CN1CCN(CCCN2c3ccccc3Sc3ccc(S(=O)(=O)N(C)C)cc32)CC1.CS(=O)(=O)O.CS(=O)(=O)O` [compound 149, Thioproperasinedimesylate], the “hTLR8 (inhibitory effect, antagonist score)” value is listed as “— (compounds for which there was no clear down regulation even at 50 μg/ml)”.

For the molecule `Clc1ccccc1C(c1ccccc1)(c1ccccc1)n1ccnc1` [compound 267, Clotrimazole], the “hTLR8 (inhibitory effect, antagonist score)” value is 12 (compounds for which there was clear down regulation at 5 μg/ml and 50 μg/ml).

Consider `CC(NCCC(c1ccccc1)c1ccccc1)c1ccccc1.Cl` (stereo not shown) [compound 270, Fendiline hydrochloride], for which the “hTLR8 (inhibitory effect, antagonist score)” value was 12 (compounds for which there was clear down regulation at 5 μg/ml and 50 μg/ml).

In the case of `CN1CCC(=C2c3ccccc3Sc3ccccc32)CC1.O=C(O)/C=C\C(=O)O` [compound 294, Pimethixene maleate], the “hTLR8 (inhibitory effect, antagonist score)” value is given as 11 (compounds for which there was clear down regulation only at 50 μg/ml).

For `O=c1[nH]c2ccccc2n1C1CCN(CCCC(c2ccc(F)cc2)c2ccc(F)cc2)CC1` [compound 308, Pimozide], the “hTLR8 (inhibitory effect, antagonist score)” value was 11 (compounds for which there was clear down regulation only at 50 μg/ml).

In the case of `Cl.Cl.OCCN1CCN(CC/C=C2/c3ccccc3Sc3ccc(C(F)(F)F)cc32)CC1` [compound 340, Flupentixoldihydrochloride cis-(Z)], the “hTLR8 (inhibitory effect, antagonist score)” value was 11 (compounds for which there was clear down regulation only at 50 μg/ml).

Consider `CNCCCN1c2ccccc2CCc2ccccc21.Cl` [compound 343, Desipraminehydrochloride], for which the “hTLR8 (inhibitory effect, antagonist score)” value is reported as 11 (compounds for which there was clear down regulation only at 50 μg/ml).

In the case of `CN(C)CC/C=C1/c2ccccc2Sc2ccc(Cl)cc21.Cl` [compound 348, Chlorprothixenehydrochloride], the “hTLR8 (inhibitory effect, antagonist score)” value is 11 (compounds for which there was clear down regulation only at 50 μg/ml).

Consider `Cc1cccc(C)c1NC(=O)CN1CCN(CCCC(c2ccc(F)cc2)c2ccc(F)cc2)CC1` [compound 381, Lidoflazine], for which the “hTLR8 (inhibitory effect, antagonist score)” value is recorded as 11 (compounds for which there was clear down regulation only at 50 μg/ml).

As to `Cl.Cl.Fc1ccc(C(OCCN2CCN(CCCc3ccccc3)CC2)c2ccc(F)cc2)cc1` [compound 386, GBR 12909hydrochloride], the “hTLR8 (inhibitory effect, antagonist score)” value is 12 (compounds for which there was clear down regulation at 5 μg/ml and 50 μg/ml).

As for `Nc1cccc2c1C(=O)c1cccc(N)c1C2=O` [compound 413, Anthraquinone,1,5-diamino], the “hTLR8 (inhibitory effect, antagonist score)” value was 11 (compounds for which there was clear down regulation only at 50 μg/ml).

With `CN1CCC2C(C1)c1ccccc1N2Cc1ccccc1` (stereo not shown) [compound 455, Mebhydroline 1,5 naphtalenedisulfonate], the “hTLR8 (inhibitory effect, antagonist score)” value is recorded as “— (compounds for which there was no clear down regulation even at 50 μg/ml)”.

As for `Cc1cccc(CN2CCN(C(c3ccccc3)c3ccc(Cl)cc3)CC2)c1.Cl.Cl` (stereo not shown) [compound 457, Meclozinedihydrochioride], the “hTLR8 (inhibitory effect, antagonist score)” value is given as “— (compounds for which there was no clear down regulation even at 50 μg/ml)”.

With `c1ccc2c(c1)[nH]c1cnccc12` [compound 470, norharman], the “hTLR8 (inhibitory effect, antagonist score)” value was 11 (compounds for which there was clear down regulation only at 50 μg/ml).

As to `CN(C)CC/C=C1/c2ccccc2CSc2ccccc21.Cl` [compound 488, Dosulepin hydrochloride], the “hTLR8 (inhibitory effect, antagonist score)” value is given as “— (compounds for which there was no clear down regulation even at 50 μg/ml)”.

For the molecule `CN1CCN(C(c2ccccc2)c2ccccc2)CC1.Cl` [compound 510, Cyclizine hydrochloride], the “hTLR8 (inhibitory effect, antagonist score)” value is reported as “— (compounds for which there was no clear down regulation even at 50 μg/ml)”.

For the molecule `CN1CCCCC1CCN1c2ccccc2Sc2ccc([S+](C)[O-])cc21.O=S(=O)(O)c1ccccc1` (stereo not shown) [compound 529, Mesoridazine besylate], the “hTLR8 (inhibitory effect, antagonist score)” value is “— (compounds for which there was no clear down regulation even at 50 μg/ml)”.

For `CCOC(=O)Oc1c(OC)cc(C(=O)O[C@@H]2C[C@@H]3CN4CCc5c([nH]c6cc(OC)ccc56)[C@H]4C[C@@H]3[C@H](C(=O)OC)[C@H]2OC)cc1OC` [compound 564, Syrosingopine], the “hTLR8 (inhibitory effect, antagonist score)” value was 12 (compounds for which there was clear down regulation at 5 μg/ml and 50 μg/ml).

In the case of `COC(=O)[C@H]1[C@H]2C[C@@H]3c4[nH]c5cc(OC)ccc5c4CCN3C[C@H]2C[C@@H](OC(=O)/C=C/c2cc(OC)c(OC)c(OC)c2)[C@@H]1OC` [compound 568, Rescinnamin], the “hTLR8 (inhibitory effect, antagonist score)” value was “— (compounds for which there was no clear down regulation even at 50 μg/ml)”.
